Measured values published in US9346786B2, “Pyrrolidine compounds” (Hoffmann-La Roche Inc., priority 2009, dated 2016).
Read-outs that look alike come from different tables or passages of the source.

Assays:
[1] = target: recombinant human NK3 receptor (Homo sapiens (Human), UniProt P29371); assay: biochemical; assay type: binding; settings: read-out: Data Ki (hNK-3 receptor affinity)
[2] = phase II trial; cited from earlier work
[3] = [3H]SR142801, membranes of HEK293 cells transiently expressing recombinant human NK3 receptor

recombinant human NK3 receptor, sequence (P29371 whole entry): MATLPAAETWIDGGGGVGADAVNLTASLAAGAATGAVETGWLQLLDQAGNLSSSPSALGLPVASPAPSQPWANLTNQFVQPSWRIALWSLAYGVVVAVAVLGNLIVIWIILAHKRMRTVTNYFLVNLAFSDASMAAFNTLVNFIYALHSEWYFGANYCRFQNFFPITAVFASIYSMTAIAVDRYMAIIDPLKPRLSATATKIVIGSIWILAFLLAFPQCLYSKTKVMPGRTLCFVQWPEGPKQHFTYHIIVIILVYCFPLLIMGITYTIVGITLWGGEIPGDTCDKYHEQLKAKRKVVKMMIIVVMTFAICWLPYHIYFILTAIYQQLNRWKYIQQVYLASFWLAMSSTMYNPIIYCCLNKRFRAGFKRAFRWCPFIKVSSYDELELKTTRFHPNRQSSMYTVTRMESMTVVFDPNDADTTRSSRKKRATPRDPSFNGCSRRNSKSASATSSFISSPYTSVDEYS

SMILES | Ki [1, 3] [nM] | further results
CCN(C(=O)Oc1ccc(F)cc1)[C@@H]1CN(C(=O)C2CCN(c3ccc(C(F)(F)F)cn3)CC2)C[C@H]1c1ccc(Cl)c(Cl)c1 [Example 114, [(3S,4R)-4-(3,4-Dichloro-phenyl)-1-(5′-trifluoromethyl-3,4,5,6-tetrahydro-2H-[1,2′]bipyridinyl-4-carbonyl)-pyrrolidin-3-yl]-ethyl-carbamic acid 4-fluoro-phenyl ester] | 1.6 | –
CCN(C(=O)Oc1ccc(F)cc1)[C@@H]1CN(C(=O)C2CCN(c3ccc(C(N)=O)cn3)CC2)C[C@H]1c1ccc(Cl)c(Cl)c1 [Example 115, [(3S,4R)-1-(5′-Carbamoyl-3,4,5,6-tetrahydro-2H-[1,2′]bipyridinyl-4-carbonyl)-4-(3,4-dichloro-phenyl)-pyrrolidin-3-yl]-ethyl-carbamic acid 4-fluoro-phenyl ester] | 0.9 | –
CCN(C(=O)Oc1ccc(F)cc1)[C@@H]1CN(C(=O)C2CCN(c3ccc(C(C)=O)cn3)CC2)C[C@H]1c1ccc(Cl)c(Cl)c1 [Example 116, [(3S,4R)-1-(5′-Acetyl-3,4,5,6-tetrahydro-2H-[1,2′]bipyridinyl-4-carbonyl)-4-(3,4-dichloro-phenyl)-pyrrolidin-3-yl]-ethyl-carbamic acid 4-fluoro-phenyl ester] | 0.5 | –
CCN(C(=O)Oc1ccc(F)cc1)[C@@H]1CN(C(=O)C2CCN(c3ccc(F)cn3)CC2)C[C@H]1c1ccc(F)c(Cl)c1 [Example 117, [(3S,4R)-4-(3-Chloro-4-fluoro-phenyl)-1-(5′-fluoro-3,4,5,6-tetrahydro-2H-[1,2′]bipyridinyl-4-carbonyl)-pyrrolidin-3-yl]-ethyl-carbamic acid 4-fluoro-phenyl ester] | 3.3 | –
CCN(C(=O)Oc1ccc(F)cc1)[C@@H]1CN(C(=O)C2CCN(c3ccc(Cl)cn3)CC2)C[C@H]1c1ccc(F)c(Cl)c1 [Example 118, [(3S,4R)-4-(3-Chloro-4-fluoro-phenyl)-1-(5′-chloro-3,4,5,6-tetrahydro-2H-[1,2′]bipyridinyl-4-carbonyl)-pyrrolidin-3-yl]-ethyl-carbamic acid 4-fluoro-phenyl ester] | 1.8 | –
CCN(C(=O)Oc1ccc(F)cc1)[C@@H]1CN(C(=O)C2CCN(c3ccc(C(F)(F)F)cn3)CC2)C[C@H]1c1ccc(F)c(Cl)c1 [Example 119, [(3S,4R)-4-(3-Chloro-4-fluoro-phenyl)-1-(5′-trifluoromethyl-3,4,5,6-tetrahydro-2H-[1,2′]bipyridinyl-4-carbonyl)-pyrrolidin-3-yl]-ethyl-carbamic acid 4-fluoro-phenyl ester] | – | Ki [1]: 3.7 nM
CCN(C(=O)Oc1ccc(F)cc1)[C@@H]1CN(C(=O)C2CCN(c3ccc(C(C)=O)cn3)CC2)C[C@H]1c1ccc(F)c(Cl)c1 [Example 120, [(3S,4R)-1-(5′-Acetyl-3,4,5,6-tetrahydro-2H-[1,2′]bipyridinyl-4-carbonyl)-4-(3-chloro-4-fluoro-phenyl)-pyrrolidin-3-yl]-ethyl-carbamic acid 4-fluoro-phenyl ester] | 1.7 | –
CCN(C(=O)Oc1ccc(F)cc1)[C@@H]1CN(C(=O)C2CCN(C(=O)[C@@H]3CC(=O)N3)CC2)C[C@H]1c1ccc(Cl)cc1 [Example 121, {(3S,4R)-4-(4-Chloro-phenyl)-1-[1-((S)-4-oxo-azetidine-2-carbonyl)-piperidine-4-carbonyl]-pyrrolidin-3-yl}-ethyl-carbamic acid 4-fluoro-phenyl ester] | 16.9 | –
CCN(CC)CC(=O)c1ccc(N2CCC(C(=O)N3C[C@@H](N(CC)C(=O)Oc4ccc(F)cc4)[C@H](c4ccc(F)cc4)C3)CC2)nc1 [Example 122, [(3S,4R)-1-[5′-(2-Diethylamino-acetyl)-3,4,5,6-tetrahydro-2H-[1,2′]bipyridinyl-4-carbonyl]-4-(4-fluoro-phenyl)-pyrrolidin-3-yl]-ethyl-carbamic acid 4-fluoro-phenyl ester] | 69.6 | –
CC(=O)N(C)C1(c2ccccc2)CCN(CCC[C@]2(c3ccc(Cl)c(Cl)c3)CCCN(C(=O)c3ccccc3)C2)CC1 [SR 142,801, Osanetant] | – | activity on negative symptoms of schizophrenia [2]: inactive in the treatment of negative symptoms; activity on positive symptoms of schizophrenia [2]: active on positive symptoms of schizophrenia
